The values that follow come from patent US20230045151A1, “COMPOSITIONS AND METHODS” (MONASH UNIVERSITY, priority 2020, published 2023).

The subject of one assay is lung DCs. In words: In vivo tracking of DCs after intranasal fluorescently labelled HDM. Details: species or system mouse. Conditions: L-tyrosine-treated mice, intranasal HDM-AF647. Here is the method:
Mediastinal lymph nodes were filtered through a 40 μm cell strainer, washed with PBS supplemented with 1% fetal bovine serum and 2 mM EDTA (Invitrogen) (MACS buffer). Lungs were finely cut with scissors, digested with Collagenase IV (Gibco™) in Iscove's modified Dulbecco's medium (IMDM, Gibco™) for 50 min at 37° C. and processed as the lymph nodes. Cell counts were determined with Coulter Counter and […] were stained with freshly prepared antibody mix in MACS buffer for 20 minutes at 4° C. in a 96-well round-bottom plates (Costar). Dendritic cells were identified using monoclonal antibodies against CD11c-phycoerythrin (PE)/Cy7 (Biolegend, cat nr 117318; diluted 1:400 in MACS buffer), SiglecF-Alexa Fluor (AF) 647 (BD Biosciences™, 562680; 1:400) and MHC-II-AF700 (Biolegend, 107622, 1:800). DC activation was assessed using antibodies against PD-L2-PE (Biolegend, 107205; 1:200), CD80− Brilliant Violet (BV)-605 (Biolegend, 104729; 1:200) and CD86-BV650 (Biolegend, 105035; 1:200). T helper cells were identified using antibodies against CD3c-Pacific Blue (PB) (Biolegend, 100214; 1:800) and CD4− PerCP-Cy5.5 (Biolegend, 100434; 1:800). Activated T helper cells were identified using anti-CD44-PE antibody (BD Biosciences™, 553134, 1: 400) A regulatory subset of T helper cells (Tregs) was identified with the addition of anti-CD25-AF700 (Biolegend, 102024; 1:200) and anti-Foxp3-AF647 (Biolegend, 126408; 1:200) antibodies. For the latter, an intracellular staining was performed, where cells were incubated with anti-Foxp3 antibody diluted in 0.5% saponin from Quillaja bark (Sigma-Aldrich) for 40 minutes at 4° C. B cells were identified with anti-CD19-PE/Cy7 (eBioscience, 25-0193; 1:200) and anti-B220-FITC (Biolegend, 103206; 1:200). When indicated, HEL and HDM were labelled with Alexa Fluor 647 antibody labelling kit (Invitrogen™) and separated from the unlabelled dye with the use of PD-10 desalting columns (GE Healthcare). […] Samples were analyzed with FlowJo 10.4.2 software (Tree Star Inc., Ashland, Oreg.). […]

The next assay concerns pulmonary DCs. In words: DC:T cell co-culture (priming of naive OT-II cells / restimulation of effector Th cells). The assay is classed as cell-based, mouse. The settings on record: pulmonary DCs from L-tyrosine-treated mice. From the text:
Data from a-c are pooled from two experiments (a, b, n=10 biologically independent samples per group; c, n=9 biologically independent samples per group). Data in d represent technical replicates (n=6 left panel, n=5 right panel) from one experiment. Data in e are pooled from 3 independent experiments (n=6 per group). Data in f are pooled from two independent experiments (n=5 biologically independent samples per group). Data in g are pooled from two independent experiments (n=9 biologically independent samples per group). Data in h are pooled from two independent experiments (n=4 biologically independent samples per group). All data are presented as mean values±s.e.m. Statistical significance for a-d, f, g, was evaluated with unpaired Student's t-test (in the case of Gaussian distribution) or Mann-Whitney test (non-Gaussian distribution). Statistical significance for e, h was determined with One-Way analysis of variance (ANOVA) with Dunnett correction for multiple comparisons. Data distribution was assessed with D'Agostino & Pearson normality test. *p≤0.05, **p≤0.01, ***p≤0.001, ****p≤0.0001
DC: T cell co-cultures were set-up by sorting CD11c+ SiglecF− (DCs) and CD4+CD44+ T cells from the lungs of HDM-immunized mice on FACSAria III (BD Biosciences™, San Jose, Calif.). […]

In the case of `N[C@@H](Cc1ccc(O)cc1)C(=O)O` [L-tyrosine], in the assay with lung DCs, the “activation of lung DCs (surface CD80, CD86, PD-L2)” value is given as “impairment”; the “antigen (HDM) uptake by lung DCs” value was “modest effect”; the “migratory capacity of DCs (frequency of HDM+ DCs in the draining LNs)” value was “decreased”. Moreover, in the assay with pulmonary DCs, the “capacity of DCs to restimulate in vivo-primed effector T helper cells into an IL-13-producing subset” value is on record as “impaired”. Also, in the assay on pulmonary DCs (OT-II cells), the “capacity of DCs to prime naive CD4+ T cells into an IL-13-producing subset” value is “impaired”.
